One block for each compound: values may come before it.
Tests used:
IL-2 and IFN-γ = experiment: Augmentation of IL-2 and IFN-γ production following TCR activation of PBMC (IL-2) or T-cells (IFN-γ); format: cell-based
TNF-α, IL-1β, and IL-6 = experiment: LPS-stimulated production of pro-inflammatory cytokines by PBMC; format: cell-based
IL-10 = experiment: LPS-stimulated production of anti-inflammatory cytokine IL-10 by PBMC; format: cell-based
[1] = Cardiovascular and respiratory function in anesthetized dogs; format: in vivo, Beagle dogs
Text: Two groups of Beagle dogs (2/sex/group) are used.

[2] = Phase 1 studies of Revimid in refractory or relapsed multiple myeloma: pharmacokinetics; format: in vivo
Experimental: (§1) Patients were evaluated for adverse events at each visit and the severity of these events was graded according to the National Cancer Institute (NCI) Common Toxicity Criteria. Patients were discontinued if they experienced DLT (Grade 3 or greater non-hematological, or Grade 4 hematological toxicity).
Blood and urine samples were collected for analysis of pharmacokinetic parameters on Days 1 and 28. Blood samples were collected according to the following sampling schedule: pre-dose, 0.25, 0.5, 0.75, 1, 1.5, 2, 2.5, 3, 4, 6, 8, 10, 12, 18, and 24 hours post-dose. In addition, a blood sample was collected at each weekly clinic visit for 3-(4-amino-1-oxo-1,3-dihydro-isoindol-2-yl)-piperidine-2,6-dione determination. Total urine was collected and pooled according to the following time intervals post-dose: 0 to 4, 4 to 8, 8 to 12, and 12 to 24 hours. […] Bone marrow aspirations and/or tissue biopsy are also performed at Months 3, 6 and 12 if a patient's paraprotein serum concentration or 24-hour urine protein excretion declined to the next lower level, based on best response criteria.

[3] = Phase 1 studies of Revimid in refractory or relapsed multiple myeloma: dose limiting toxicity; format: in vivo
Experimental: as §1

[4] = Phase 1 study of Revimid in patients with solid tumors: dose limiting toxicity; format: in vivo; settings: initial group of 20 patients, 5 escalated to 50 mg/day over 4 weeks
Experimental: Patients who, experienced clinical benefit were permitted to continue on treatment as Named Patients.
The study design dictates that at least 3 patients must be enrolled at a dose level and have completed 28 days of treatment prior to enrollment of patients at the next higher dose level. Patients in the first cohort began dosing at 5 mg/day of 3-(4-amino-1′-oxo-1,3-dihydro-isoindol-2-yl)-piperidine-2,6-dione. […]
If, at any given dose level in either study, one out of three patients experiences toxicity, three additional patients must be treated at that particular dose. If, however, two out of six patients experience DLT, the MTD is judged to have been exceeded. No further dose escalations are to occur and additional patients are to be enrolled at the previous dose level.

metastatic melanoma = experiment: Treatment of patients with metastatic melanoma; format: in vivo, human
Experimental: The dose was then increased every seven days to 10 mg/day, 25 mg/day, and 50 mg/day, respectively, for a total of four weeks on therapy.

[5] = Pharmacokinetics of Actimid in relapsed/refractory multiple myeloma patients; format: in vivo, human; settings: for AUC: AUC(0-τ); for Vd/F: Vz/f; for half-life: t½
Experimental: 4-(Amino)-2-(2,6-dioxo(3-piperidyl))-isoindoline-1,3-dione (Actimid™) was administered to patients with relapsed/refractory multiple myeloma. The study was conducted in compliance with Good Clinical Practices. Patients were at least 18 years old, had been diagnosed with multiple myeloma (with paraprotein in serum and/or urine), and were considered refractory to treatment after at least two cycles of treatment, or have relapsed after two cycles of treatment.
4-(Amino)-2-(2,6-dioxo(3-piperidyl))-isoindoline-1,3-dione is administered to patients at doses of 1, 2, 5, or 10 mg/day for up to four weeks; at each dose level, three patients are initially enrolled. Dosing occurs at approximately the same time each morning; all doses are administered in the fasted state (no eating for at least two hours prior to dosing and two hours after dosing). 4-(Amino)-2-(2,6-dioxo(3-piperidyl))-isoindoline-1,3-dione doses are administered in an ascending fashion such that patients in the first cohort receive the lowest dose of 4-(amino)-2-(2,6-dioxo(3-piperidyl))-isoindoline-1,3-dione (1 mg/day) and escalation to the next higher dose level occurs only following the establishment of safety and tolerability at the current dose. If one out of three patients at any dose level experience dose limiting toxicity (DLT), three additional patients are enrolled at that dose. If none of the three additional patients experience DLT, escalation to the next dose level occurs; dose escalations continue in a similar fashion until the MTD is established or the maximum daily dose (10 mg/day) is attained. However, if one of the three additional patients enrolled experiences DLT, the MTD has been reached. If two or more of the three additional patients enrolled experience DLT, the MTD is judged to have been exceeded and three additional patients are enrolled at the preceding dose level to confirm the MTD. Once the MTD has been identified, four additional patients are enrolled at that dose level so that a total of 10 patients is treated at the MTD.
Blood sampling for analysis of pharmacokinetic parameters is performed on Days 1 and 28 according to the following sampling schedule: pre-dose, 0.25, 0.5, 0.75, 1, 1.5, 2, 2.5, 3, 4, 6, 8, 10, 12, 18, and 24 hours post-dose. An additional blood sample is collected at each weekly visit for the determination of 4-(amino)-2-(2,6-dioxo(3-piperidyl))-isoindoline-1,3-dione levels. Total urine collections are also made with urine pooled according to the following time intervals post-dose: 0 to 4, 4 to 8, 8 to 12, and 12 to 24 hours. Safety assessments are made by monitoring adverse events, vital signs, ECGs, clinical laboratory evaluations (blood chemistry, hematology, lymphocyte phenotyping, and urinalysis), and physical examination at specific times during the study.

[6] = multiple myeloma patients, preliminary

- half-live in patients, mean ([2]; human, in vivo): 8 h
- half-live in patients, ranging up to ([2]; human, in vivo): up to 17 hours
- accumulation with multiple dosing ([2]; in vivo): no evidence of accumulation
- shape of concentration profile ([2]; in vivo): double peaks were observed
- clearance compared to healthy volunteers [2, 6]: lower
- exposure (Cmax and AUC) compared to healthy male volunteers [2, 6]: slightly higher
Compound: Nc1cccc2c1CN(C1CCC(=O)NC1=O)C2=O (stereo not drawn) [Revimid, 3-(4-amino-1-oxo-1,3-dihydro-isoindol-2-yl)-piperidine-2,6-dione]
- times more potent than thalidomide in augmenting the production of IL-2 and IFN-γ (IL-2 and IFN-γ): 50-100 times
- effect on LPS-stimulated production of TNF-α, IL-1β, and IL-6 (TNF-α, IL-1β, and IL-6): dose-dependent inhibition
- effect on production of IL-10 (IL-10): increased production
- cardiovascular and respiratory changes compared to the vehicle control group ([1]; anesthetized dogs, 2, 10, and 20 mg/kg, infusion through the jugular vein, all doses): minimal
- deviations in femoral blood flow, respiratory parameters, and Qtc interval ([1]; common to both the control and treated groups): not considered treatment-related
- duration of the arterial blood pressure effect ([1]; low dose): approximately 15 minutes
- arterial blood pressure after small increase ([1]; low dose, increase from 94 mmHg, not seen at higher doses): 101 mmHg
- dose limiting toxicity (DLT) ([3]; first cohort of 3 patients, 5 mg/day, 28 days): without any dose limiting toxicity
- tolerability ([3]; second cohort of 3 patients, 10 mg/day): tolerated treatment well
- DLTs reported [4]: No DLTs
- patients showing disease stabilization or a partial response (metastatic melanoma; first four weeks of treatment, 5 escalated to 50 mg/day): Five of the 13
- duration of response (metastatic melanoma; metastatic melanoma patients): approximately six months
- tumor response seen in cutaneous and subcutaneous lesions (metastatic melanoma; metastatic melanoma patients): five
- tumor response seen in liver (metastatic melanoma; metastatic melanoma patients): one
- tumor response seen in lymph nodes (metastatic melanoma; metastatic melanoma patients): two

- increase in AUC(0-τ) with 5-fold increase in dose ([5]; Day 1): 3.6 fold
- increase in Cmax with five-fold higher dose ([5]; Day 1): 3.2 fold
- increase in AUC(0-τ) with 5-fold increase in dose ([5]; Week 4): 2.3 fold
- increase in Cmax with five-fold higher dose ([5]; Week 4): 2.2 fold
- decline of plasma concentrations after reaching Cmax ([5]; human, in vivo): declined in a monophasic manner
- increase in AUC(0-τ) and Cmax values with increasing dose ([5]; human, in vivo): almost a dose proportional increase
- AUC(0-inf) ([5]; human, in vivo, 1 mg): 153 ng·h/mL
- AUC ([5]; human, in vivo, 1 mg): 134 ng·h/mL
- Cmax ([5]; human, in vivo, 1 mg): 15 ng/mL
- Vd/F ([5]; human, in vivo, 1 mg): 69.5 L
- Tmax ([5]; human, in vivo, 1 mg, tmax): 3.3 h
- half-life ([5]; human, in vivo, 1 mg): 7.3 h
- AUC(0-inf) ([5]; human, in vivo, 2 mg): 279 ng·h/mL
- AUC ([5]; human, in vivo, 2 mg): 250 ng·h/mL
- Cmax ([5]; human, in vivo, 2 mg): 24.4 ng/mL
- Vd/F ([5]; human, in vivo, 2 mg): 65.3 L
- Tmax ([5]; human, in vivo, 2 mg, tmax): 2.7 h
- half-life ([5]; human, in vivo, 2 mg): 6.3 h
- AUC(0-inf) ([5]; human, in vivo, 5 mg): 593 ng·h/mL
- AUC ([5]; human, in vivo, 5 mg): 521 ng·h/mL
- Cmax ([5]; human, in vivo, 5 mg): 48.6 ng/mL
- Vd/F ([5]; human, in vivo, 5 mg): 87.2 L
- Tmax ([5]; human, in vivo, 5 mg, tmax): 2.3 h
- half-life ([5]; human, in vivo, 5 mg): 6.5 h
- Tmax ([5]; human, in vivo, median Tmax): 2.5 to 2.8 h
- Tmax ([5]; human, in vivo, po, tmax): 3.6 h
- half-life ([5]; human, in vivo, po): 6.2 h
Compound: Nc1cccc2c1C(=O)N(C1CCC(=O)NC1=O)C2=O (stereo not drawn) [Actimid, 4-(Amino)-2-(2,6-dioxo(3-piperidyl))-isoindoline-1,3-dione]

Source: US7323479B2, “Methods for treatment and management of brain cancer using 1-oxo-2-(2,6-dioxopiperidin-3-yl)-4-methylisoindoline” (Celgene Corporation, priority 2002, dated 2008)
